Calls of active or inactive are those of the source. The calls are words filed in the database; no cut-off is given here.
Assays:
[1] = (§1) Downregulation of BLK level in human Ramos cells at 0.3 uM measured after 12 hrs by Western blot analysis; format: functional
[2] = test system: Ramos; experiment: as §1; format: functional
[3] = test system: SU-DHL-6; experiment: Growth inhibition of human SU-DHL-6 cells measured after 72 hrs by cell titer glo luminescent cell viability assay; format: functional
[4] = test system: SUD4; experiment: Growth inhibition of human SU-DHL-4 cells measured after 72 hrs by cell titer glo luminescent cell viability assay; format: functional
[5] = test system: DOHH-2; experiment: Growth inhibition of human DOHH-2 cells measured after 72 hrs by cell titer glo luminescent cell viability assay; format: functional
[6] = biological target: Tyrosine-protein kinase BTK (Homo sapiens, UniProt Q06187); experiment: Inhibition of full length N-terminal GST tagged BTK (2 to 659 end residues) (unknown origin) expressed in Sf21insect cells by time resolved fluorescence based assay; design: species or system Sf21
[7] = biological target: Tyrosine-protein kinase SYK (Homo sapiens, UniProt P43405); experiment: Inhibition of SYK phosphorylation in human Ramos cells incubated for 1 hr; format: cell-based
[8] = biological target: Tyrosine-protein kinase Lck (Homo sapiens) (UniProt P06239); experiment: Induction of degradation of LCK in human Jurkat cells assessed as maximum degradation at > 1 uM incubated for 12 hrs by Western blot analysis relative to control; format: cell-based
[9] = test system: SU-DHL-6; experiment: Downregulation of CDK2 level in human SU-DHL-6 cells at 1 uM measured after 48 hrs by Western blot analysis; format: functional, cell-based
[10] = test system: SUD4; experiment: Antiproliferative activity against human SU-DHL-4 cells at 0.1 to 0.3 uM measured after 72 hrs by cell titer glo luminescent cell viability assay; format: functional, cell-based; conditions: dose 0.1-0.3 µM
[11] = test system: Pfeiffer; experiment: Antiproliferative activity against human Pfeiffer cells at 0.1 to 0.3 uM measured after 72 hrs by cell titer glo luminescent cell viability assay; format: functional, cell-based; conditions: dose 0.1-0.3 µM
[12] = test system: PC-9; experiment: Antiproliferative activity against human PC-9 cells at 0.1 to 0.3 uM measured after 72 hrs by cell titer glo luminescent cell viability assay; format: functional, cell-based; conditions: dose 0.1-0.3 µM
[13] = test system: Jurkat; experiment: Antiproliferative activity against human Jurkat cells at 0.1 to 0.3 uM measured after 72 hrs by cell titer glo luminescent cell viability assay; format: functional, cell-based; conditions: dose 0.1-0.3 µM
[14] = test system: DOHH-2; experiment: Downregulation of CDK2 level in human DOHH-2 cells at 1 uM measured after 48 hrs by Western blot analysis; format: functional, cell-based
[15] = test system: DOHH-2; experiment: Antiproliferative activity against human DOHH-2 cells at 0.1 to 0.3 uM measured after 72 hrs by cell titer glo luminescent cell viability assay; format: functional, cell-based; conditions: dose 0.1-0.3 µM
[16] = test system: OCI-Ly7; experiment: Antiproliferative activity against human OCILY7 cells at 0.1 to 0.3 uM measured after 72 hrs by cell titer glo luminescent cell viability assay; format: functional, cell-based; conditions: dose 0.1-0.3 µM
[17] = test system: A-375; experiment: Antiproliferative activity against human A-375 cells at 0.1 to 0.3 uM measured after 72 hrs by cell titer glo luminescent cell viability assay; format: functional, cell-based; conditions: dose 0.1-0.3 µM
[18] = test system: HBL1; experiment: Antiproliferative activity against human HBL1 cells at 0.1 to 0.3 uM measured after 72 hrs by cell titer glo luminescent cell viability assay; format: functional, cell-based; conditions: dose 0.1-0.3 µM
[19] = test system: Ramos; experiment: Antiproliferative activity against human Ramos cells at 0.1 to 0.3 uM measured after 72 hrs by cell titer glo luminescent cell viability assay; format: functional, cell-based; conditions: dose 0.1-0.3 µM
[20] = test system: A549; experiment: Antiproliferative activity against human A549 cells at 0.1 to 0.3 uM measured after 72 hrs by cell titer glo luminescent cell viability assay; format: functional, cell-based; conditions: dose 0.1-0.3 µM
[21] = test system: TMD8; experiment: Antiproliferative activity against human TMD8 cells at 0.1 to 0.3 uM measured after 72 hrs by cell titer glo luminescent cell viability assay; format: functional, cell-based; conditions: dose 0.1-0.3 µM
[22] = test system: RPMI-8226; experiment: Antiproliferative activity against human RPMI-8226 cells at 0.1 to 0.3 uM measured after 72 hrs by cell titer glo luminescent cell viability assay; format: functional, cell-based; conditions: dose 0.1-0.3 µM
[23] = test system: SU-DHL-6; experiment: Antiproliferative activity against human SU-DHL-6 cells at 0.1 to 0.3 uM measured after 72 hrs by cell titer glo luminescent cell viability assay; format: functional, cell-based; conditions: dose 0.1-0.3 µM
[24] = test system: Raji; experiment: Antiproliferative activity against human Raji cells at 0.1 to 0.3 uM measured after 72 hrs by cell titer glo luminescent cell viability assay; format: functional, cell-based; conditions: dose 0.1-0.3 µM
[25] = test system: OPM-2; experiment: Antiproliferative activity against human OPM-2 cells at 0.1 to 0.3 uM measured after 72 hrs by cell titer glo luminescent cell viability assay; format: functional, cell-based; conditions: dose 0.1-0.3 µM
[26] = test system: CCRF-CEM; experiment: Antiproliferative activity against human CCRF-CEM cells at 0.1 to 0.3 uM measured after 72 hrs by cell titer glo luminescent cell viability assay; format: functional, cell-based; conditions: dose 0.1-0.3 µM
[27] = test system: A-431; experiment: Antiproliferative activity against human A-431 cells at 0.1 to 0.3 uM measured after 72 hrs by cell titer glo luminescent cell viability assay; format: functional, cell-based; conditions: dose 0.1-0.3 µM
[28] = test system: RS4-11; experiment: Antiproliferative activity against human RS4-11 cells at 0.1 to 0.3 uM measured after 72 hrs by cell titer glo luminescent cell viability assay; format: functional, cell-based; conditions: dose 0.1-0.3 µM
[29] = test system: 6T-CEM; experiment: Antiproliferative activity against human 6T-CEM cells at 0.1 to 0.3 uM measured after 72 hrs by cell titer glo luminescent cell viability assay; format: functional, cell-based; conditions: dose 0.1-0.3 µM
[30] = test system: NAMALVA; experiment: Antiproliferative activity against human NAMALVA cells at 0.1 to 0.3 uM measured after 72 hrs by cell titer glo luminescent cell viability assay; format: functional, cell-based; conditions: dose 0.1-0.3 µM
[31] = test system: MOLT-4; experiment: Antiproliferative activity against human MOLT-4 cells at 0.1 to 0.3 uM measured after 72 hrs by cell titer glo luminescent cell viability assay; format: functional, cell-based; conditions: dose 0.1-0.3 µM

Chain of Tyrosine-protein kinase BTK (Q06187 whole entry): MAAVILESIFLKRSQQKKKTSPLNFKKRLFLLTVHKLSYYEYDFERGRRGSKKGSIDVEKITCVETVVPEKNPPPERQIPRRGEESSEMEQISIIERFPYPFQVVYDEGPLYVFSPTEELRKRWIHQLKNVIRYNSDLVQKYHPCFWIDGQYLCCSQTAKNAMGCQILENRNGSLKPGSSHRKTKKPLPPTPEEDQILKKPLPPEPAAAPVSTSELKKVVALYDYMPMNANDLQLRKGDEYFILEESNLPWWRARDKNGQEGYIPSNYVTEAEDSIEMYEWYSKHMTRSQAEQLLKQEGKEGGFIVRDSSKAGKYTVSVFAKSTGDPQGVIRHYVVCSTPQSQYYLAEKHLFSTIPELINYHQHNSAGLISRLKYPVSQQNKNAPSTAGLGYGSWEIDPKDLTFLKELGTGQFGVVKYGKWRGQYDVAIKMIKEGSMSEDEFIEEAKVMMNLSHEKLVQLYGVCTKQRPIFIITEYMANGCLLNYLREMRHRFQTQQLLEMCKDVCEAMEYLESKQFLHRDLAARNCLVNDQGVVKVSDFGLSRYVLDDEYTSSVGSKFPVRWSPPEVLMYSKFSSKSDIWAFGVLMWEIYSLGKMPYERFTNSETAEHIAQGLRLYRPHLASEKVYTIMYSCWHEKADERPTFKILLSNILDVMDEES
Chain of Tyrosine-protein kinase Lck (Homo sapiens) (P06239 2-509 limits assumed): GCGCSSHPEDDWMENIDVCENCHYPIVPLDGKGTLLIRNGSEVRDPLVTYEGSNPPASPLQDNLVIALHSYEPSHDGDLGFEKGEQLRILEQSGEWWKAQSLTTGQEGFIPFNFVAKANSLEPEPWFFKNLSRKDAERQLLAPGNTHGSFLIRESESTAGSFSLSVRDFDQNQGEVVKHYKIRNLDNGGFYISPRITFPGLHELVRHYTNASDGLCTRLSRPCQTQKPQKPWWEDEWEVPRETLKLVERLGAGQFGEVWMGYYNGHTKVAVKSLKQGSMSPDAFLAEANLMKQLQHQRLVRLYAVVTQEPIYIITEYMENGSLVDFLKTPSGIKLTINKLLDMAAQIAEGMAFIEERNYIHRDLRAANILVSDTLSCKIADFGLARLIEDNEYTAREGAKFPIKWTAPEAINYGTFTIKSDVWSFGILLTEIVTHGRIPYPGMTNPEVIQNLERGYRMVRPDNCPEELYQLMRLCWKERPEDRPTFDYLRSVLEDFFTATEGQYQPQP

With `C=CC(=O)NCCC(=O)c1cccc(Nc2ncc(NC(=O)c3cc(NC(=O)c4cccc(-c5ccc(F)cc5)c4)ccc3C)cn2)c1` the Activity [1] was over 85%.
With `C=CC(=O)N1CCC(c2cccc(Nc3ncc(NC(=O)c4cc(NC(=O)c5ccc6cnccc6c5)ccc4C)cn3)c2)CC1` the Activity [2] was “Active”.
For `Cc1ccc(-c2nn(C(C)(C)C)c3ncnc(N)c23)cc1`, the Activity [2] was “inactive”, the GI50 [3] was 4.7 µM and the GI50 [4] was over 10 µM. The GI50 [5] was 3700 nM.
With `C=CC(=O)Nc1cccc(Nc2nc(Nc3ccc(OCCOC)cc3)ncc2F)c1` the Activity [2] was “Active”.
`Cc1ccc(NC(=O)CC23C[C@H]4C[C@@H](C2)C[C@@H](C3)C4)cc1C(=O)Nc1cnc(Nc2cccc(N)c2)nc1` showed an IC50 [6] of 338 nM.
Compound `Cc1ccc(NC(=O)c2ccc3ccccc3c2)cc1C(=O)Nc1cnc(Nc2cccc(N)c2)nc1` has an IC50 [7] of under 100 nM.
In the case of `Cc1ccc(NC(=O)c2ccc(Oc3ccccc3)cc2)cc1C(=O)Nc1cnc(Nc2cccc(N)c2)nc1`, the IC50 [7] is reported as 2730 nM, the Emax [8] is reported as under 50% and the IC50 [6] is reported as 991 nM.
`CCC(=O)Nc1cccc(Nc2ncc(NC(=O)c3cc(NC(=O)c4cccc(C(F)(F)F)c4)ccc3C)cn2)c1` showed an IC50 [7] of under 100 nM and an Activity [1] of over 85%.
For `Cc1nc(Nc2ncc(C(=O)Nc3c(C)cccc3Cl)s2)cc(N2CCN(CCO)CC2)n1`, the Activity [2] was “Active”.
In the case of `C=CC(=O)N1CCC[C@@H](n2nc(-c3ccc(Oc4ccccc4)cc3)c3c(N)ncnc32)C1`, the Activity [2] is reported as “inactive”.
For `Cc1ccc(NC(=O)c2ccc(-c3cccc(C(F)(F)F)c3)cc2)cc1C(=O)Nc1cnc(Nc2cccc(N)c2)nc1`, the Activity [9] was “Active”, the Activity [10] was “Active” and the Activity [11] was “Active”. For the same compound, the IC50 [7] was 2900 nM, the Activity [12] was “inactive” and the Activity [13] was “inactive”. The Activity [14] was “Active”, the Activity [15] was “Active” and the Activity [16] was “inactive”. For the same compound, the Activity [17] was “inactive”, the Activity [18] was “inactive” and the Activity [19] was “inactive”. The Activity [20] was “inactive”, the Activity [21] was “inactive” and the Activity [22] was “inactive”. For the same compound, the Activity [23] was “Active”, the Activity [24] was “inactive” and the Activity [25] was “inactive”. The Activity [26] was “inactive”, the Activity [27] was “inactive” and the GI50 [3] was 0.36 µM. For the same compound, the GI50 [4] was 0.18 µM, the GI50 [5] was 130 nM and the Activity [28] was “inactive”. For the same compound, the Activity [29] was “inactive”, the Emax [8] was under 50% and the IC50 [6] was 2560 nM. The Activity [30] was “inactive” and the Activity [31] was “inactive”.
Compound `Cc1ccc(NC(=O)C[C@@]23C[C@@H]4C[C@@H](C[C@@](O)(C4)C2)C3)cc1C(=O)Nc1cnc(Nc2cccc(N)c2)nc1` has an IC50 [6] of 855 nM.
For `Cc1ccc(NC(=O)c2ccc3cnccc3c2)cc1C(=O)Nc1cnc(Nc2cccc(C3CCN(C(=O)/C=C/CN(C)C)CC3)c2)nc1`, the Activity [2] was “Active”.
`Cc1ccc(NC(=O)Cc2ccc(-c3ccccc3)cc2)cc1C(=O)Nc1cnc(Nc2cccc(N)c2)nc1` showed a GI50 [3] of 6.2 µM, a GI50 [4] of 8.9 µM and a GI50 [5] of 2500 nM. It also gave an Emax [8] of under 50% and an IC50 [6] of 5810 nM.
With `CN1CCN(CCOc2cc(OC3CCOCC3)c3c(Nc4c(Cl)ccc5c4OCO5)ncnc3c2)CC1` the Activity [2] was “Active”.

— ChEMBL document CHEMBL5370530, “Discovery of 2,5-diaminopyrimidine derivatives as the first series of selective monomeric degraders of B-lymphoid tyrosine kinase” (Eur J Med Chem, 2023)
